Earlier results in EP4520318A1, “TRANSDERMAL THERAPEUTIC SYSTEM OF LUMATEPERONE” (Luye Pharma Switzerland AG, priority 2023, dated 2025).

Conditions: oral administration

oral bioavailability: about 4.4%
SMILES: CN1CCN2c3c(cccc31)[C@@H]1CN(CCCC(=O)c3ccc(F)cc3)CC[C@@H]12 [lumateperone, 1-(4-fluoro-phenyl)-4-((6bR, 10aS)-3-methyl-2,3,6b,9,10,10a-hexahydro-1H,7H-pyrido[3',4':4,5]pyrrolo[1,2,3-de]quinoxalin-8-yl)-butan-1-one]
